{"source": "patent US20130053541A1", "about": "“METHODS FOR DISCOVERING MOLECULES THAT BIND TO PROTEINS” (LYNNTECH, INC., priority 2011, published 2013)", "origin": "cited, not measured here", "key": {"[1]": {"biological_target": "T1, ERRgamma ligand-binding domain (LBD) (Homo sapiens, UniProt P62508)", "T1 sequence (P62508 233-457 limits assumed)": "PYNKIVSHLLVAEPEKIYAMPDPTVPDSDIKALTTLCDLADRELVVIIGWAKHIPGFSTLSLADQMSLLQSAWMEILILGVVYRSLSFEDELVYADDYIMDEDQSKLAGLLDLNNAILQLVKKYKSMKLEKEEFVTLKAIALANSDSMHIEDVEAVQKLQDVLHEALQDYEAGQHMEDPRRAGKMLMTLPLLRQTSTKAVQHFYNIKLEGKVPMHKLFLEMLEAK", "conditions": "cited from earlier work; for interaction with ERRgamma: in the absence of ligand"}, "[2]": {"biological_target": "T2, (Homo sapiens, UniProt P11474)", "T2 sequence (P11474 1-423)": "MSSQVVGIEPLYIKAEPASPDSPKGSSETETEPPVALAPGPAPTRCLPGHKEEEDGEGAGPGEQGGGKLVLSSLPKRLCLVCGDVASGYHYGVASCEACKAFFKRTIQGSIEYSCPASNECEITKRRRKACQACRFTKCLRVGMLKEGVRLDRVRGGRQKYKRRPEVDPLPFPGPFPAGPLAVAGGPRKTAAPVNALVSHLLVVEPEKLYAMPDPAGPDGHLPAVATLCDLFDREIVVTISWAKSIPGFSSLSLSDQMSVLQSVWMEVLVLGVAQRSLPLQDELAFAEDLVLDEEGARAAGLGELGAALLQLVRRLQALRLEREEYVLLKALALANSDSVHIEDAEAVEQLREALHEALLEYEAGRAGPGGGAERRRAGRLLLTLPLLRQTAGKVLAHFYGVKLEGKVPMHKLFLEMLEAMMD", "conditions": "phage display peptides; cited from earlier work"}, "[3]": {"biological_target": "ERβ (Homo sapiens, UniProt Q92731)", "sequence (Q92731 whole entry, species assumed)": "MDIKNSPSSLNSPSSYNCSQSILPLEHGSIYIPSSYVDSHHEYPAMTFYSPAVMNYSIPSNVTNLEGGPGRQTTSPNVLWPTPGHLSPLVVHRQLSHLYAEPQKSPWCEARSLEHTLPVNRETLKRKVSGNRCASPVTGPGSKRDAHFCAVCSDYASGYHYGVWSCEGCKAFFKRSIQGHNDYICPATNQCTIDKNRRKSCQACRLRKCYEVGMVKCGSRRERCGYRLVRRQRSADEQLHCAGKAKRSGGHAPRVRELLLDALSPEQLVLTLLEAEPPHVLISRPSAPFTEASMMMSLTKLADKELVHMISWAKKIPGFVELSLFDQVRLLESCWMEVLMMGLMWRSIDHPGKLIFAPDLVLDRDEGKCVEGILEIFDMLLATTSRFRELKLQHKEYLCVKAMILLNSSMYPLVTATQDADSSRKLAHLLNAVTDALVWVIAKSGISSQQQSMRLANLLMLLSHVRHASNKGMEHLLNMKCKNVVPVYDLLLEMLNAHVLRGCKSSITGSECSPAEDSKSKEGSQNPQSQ", "conditions": "cited from earlier work; for Ki: inhibition of estrogen receptor/coactivator recognition, read-out: K, values ERβ; for ERβ/ERα: ratio of K values"}, "[4]": {"biological_target": "T3, ERα (Homo sapiens, UniProt P03372)", "T3 sequence (P03372 1-595)": "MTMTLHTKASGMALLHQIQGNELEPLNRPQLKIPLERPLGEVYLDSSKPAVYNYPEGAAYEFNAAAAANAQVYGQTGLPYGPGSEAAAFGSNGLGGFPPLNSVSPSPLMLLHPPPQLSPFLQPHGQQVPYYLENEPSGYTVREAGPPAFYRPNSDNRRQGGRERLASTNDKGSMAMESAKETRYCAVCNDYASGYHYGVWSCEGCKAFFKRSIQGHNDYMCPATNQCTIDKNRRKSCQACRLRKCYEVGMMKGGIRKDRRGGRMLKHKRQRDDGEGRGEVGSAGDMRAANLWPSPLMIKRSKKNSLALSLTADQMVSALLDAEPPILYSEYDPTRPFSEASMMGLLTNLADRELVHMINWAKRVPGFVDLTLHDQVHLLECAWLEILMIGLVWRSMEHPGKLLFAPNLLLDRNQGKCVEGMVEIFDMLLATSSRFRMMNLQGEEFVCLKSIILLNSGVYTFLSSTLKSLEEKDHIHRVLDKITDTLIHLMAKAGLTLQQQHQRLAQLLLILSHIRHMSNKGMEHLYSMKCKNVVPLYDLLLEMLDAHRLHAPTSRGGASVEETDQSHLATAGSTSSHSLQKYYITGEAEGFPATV", "conditions": "inhibition of estrogen receptor/coactivator recognition, cited from earlier work; for Ki: read-out: K, values ERα"}, "[5]": {"biological_target": "T3, ERα", "conditions": "cited from earlier work"}, "[6]": {"conditions": "cited from earlier work"}, "[7]": {"tested_on": "mAb-E2", "conditions": "cited from earlier work"}}, "data": [{"substance": "GPQTPQAQQKSLLQQLLTE [SRC1-4]", "values": [{"measurement": "interaction with ERRgamma", "setting": "[1]", "value": "interacted most strongly"}]}, {"substance": "PSEDRGELWRLLSVTERQN [Peptide L3-09]", "values": [{"measurement": "inhibition of transcriptional activity of EPPα", "setting": "[2]", "value": "reducing the transcriptional activity of EPPα to basal levels"}]}, {"substance": "LTERHKILHRLLQEGSPSD [Structure 9]", "values": [{"measurement": "Ki", "setting": "[3]", "value": 5.2, "unit": "µM"}, {"measurement": "ERβ/ERα", "setting": "[3]", "value": 7.4}, {"measurement": "Ki", "setting": "[4]", "value": 0.7, "unit": "µM"}]}, {"substance": "LPYEGSLLLKLLRAPVEEV [Peptide D22]", "values": [{"measurement": "interaction with ERRgamma", "setting": "[1]", "value": "interacted most strongly"}]}, {"substance": "Mannosylacetyl-Leu-Glu-Gln-Leu-Leu-OH (Mannosylacetyl-LEQLL-OH) [Structure 2]", "values": [{"measurement": "Ki", "setting": "[3]", "value": "> 200", "unit": "µM"}, {"measurement": "Ki", "setting": "[4]", "value": "> 200", "unit": "µM"}]}, {"substance": "EAEEPSLLKKLLLAPANTQ [PGC1alpha]", "values": [{"measurement": "interaction with ERRgamma", "setting": "[1]", "value": "interacted most strongly"}]}, {"substance": "MSVQYPELQRLLMAGSTEL [Peptide L3-28]", "values": [{"measurement": "inhibition of transcriptional activity of EPPα", "setting": "[2]", "value": "reducing the transcriptional activity of EPPα to basal levels"}]}, {"substance": "KKILHRLLQ [Structure 3]", "values": [{"measurement": "Ki", "setting": "[3]", "value": 2.8, "unit": "µM"}, {"measurement": "ERβ/ERα", "setting": "[3]", "value": 16.5}, {"measurement": "Ki", "setting": "[4]", "value": 0.17, "unit": "µM"}]}, {"substance": "VSWFFED [EMP-2]", "values": [{"measurement": "IC50", "setting": "[5]", "value": 100, "unit": "µM"}, {"measurement": "estrogenic activity in vivo", "setting": "[6]", "value": "possess estrogenic activity in vivo"}, {"measurement": "IC50", "setting": "[7]", "value": 0.03, "unit": "µM"}]}, {"substance": "IPLSGSELSRLLLTEMPEL [Peptide L3-80]", "values": [{"measurement": "inhibition of transcriptional activity of EPPα", "setting": "[2]", "value": "reducing the transcriptional activity of EPPα to basal levels"}]}, {"substance": "VSWFFE [EMP-1]", "values": [{"measurement": "IC50", "setting": "[5]", "value": 100, "unit": "µM"}, {"measurement": "estrogenic activity in vivo", "setting": "[6]", "value": "possess estrogenic activity in vivo"}, {"measurement": "IC50", "setting": "[7]", "value": 0.006, "unit": "µM"}]}, {"substance": "4-hydroxytamoxifen", "values": [{"measurement": "displacement of fluorescein-labeled PGC1alpha peptide from the ERRgamma LBD", "setting": "[1]; increasing concentrations", "value": "displaced"}]}, {"substance": "LEQLL [Structure 1, H-Leu-Glu-Gln-Leu-Leu-OH]", "values": [{"measurement": "Ki", "setting": "[3]", "value": 201, "unit": "µM"}, {"measurement": "K, values ERα", "setting": "[4]", "value": "not active"}]}]}
